How the values were obtained:
[1] = tested on: Monocotyledonous and dicotyledonous test plants; assay: Example B3: herbicidal action prior to emergence (pre-emergence), 96-cell seed trays, 1000 g/ha; format: in vivo; design: key: 0 is no damage to plant; 5 is total damage to plant; settings: 9 days after application; for AGSTE herbicidal effect (visual assessment, scale 0-5): Agrostis tenius (Colonial bentgrass); for AMARE herbicidal effect (visual assessment, scale 0-5): Amaranthus retroflexus (redroot pigweed); for DIGSA herbicidal effect (visual assessment, scale 0-5): Digitaria sanguinalis (hairy finger-grass); for POATR herbicidal effect (visual assessment, scale 0-5): Poa trivialis (rough blue grass); for SETIT herbicidal effect (visual assessment, scale 0-5): Setaria italica (foxtail millet)
Experimental: Monocotyledonous and dicotyledonous test plants were sown in sterilised standard soil in seed trays each with 96 cells. The seed trays were stored under controlled conditions in a climatic chamber for one day (cultivation at 23° C. during the day and 17° C. at night; 13 hours of light; 50-60% humidity). The chemicals were applied to the soil surface. The application was carried out with an aqueous suspension of the test substances, prepared as a formulation in water with 10% dimethyl sulfoxide (CAS RN 67-68-5), to achieve a field equivalent of 1000 l/ha. The application rate of the test substances was 1000 g/ha. The plants were grown on in the climatic chamber for 9 days (cultivation at 24° C. during the day and 19° C. at night; 13 hours of light; 50-60% humidity). A visual assessment of the herbicidal effect was made at 9 days after application. The following scale was used for assessment: 0, 1, 2, 3, 4 and 5 (where 0 is no damage to plant and 5 is total damage to plant).

[2] = tested on: Monocotyledonous and dicotyledonous test plants; assay: Example B1: herbicidal action prior to emergence (pre-emergence), 500 g/ha; format: in vivo; settings: 13 days after application, 0 = no damage, 100 = plants completely dead; for ALOMY herbicidal effect (visual assessment, percentage scale): Alopecurus myosuroides (slender foxtail); for AMARE herbicidal effect (visual assessment, percentage scale): Amaranthus retroflexus (redroot pigweed); for ECHCG herbicidal effect (visual assessment, percentage scale): Echinochloa crus-galli (barnyard grass); for STEME herbicidal effect (visual assessment, percentage scale): Stellaria media (chickweed)
Experimental: Monocotyledonous and dicotyledonous test plants were sown in seed trays in standard compost. The trays were watered twice daily or as required. The chemicals were applied by track sprayer at the soil surface. The application was carried out with an aqueous suspension of the test substances, prepared as a formulation of 50% acetone in water with 0.5% Tween 20™ (CAS RN 9005-64-5), to achieve a field equivalent of 1000 l/ha. The application rate of the test substances was 500 g/ha. A visual assessment of the herbicidal effect was made at 13 days after application. The following percentage scale was used for assessment: 0, 5, 10, 20, 30, 40, 50, 60, 70, 80, 90, 95, 100 (where 0 is no damage to plants and 100 is plants are completely dead).

Structure (SMILES)	AGSTE herbicidal effect (visual assessment, scale 0-5) [1]	AMARE herbicidal effect (visual assessment, scale 0-5) [1]	DIGSA herbicidal effect (visual assessment, scale 0-5) [1]	POATR herbicidal effect (visual assessment, scale 0-5) [1]	SETIT herbicidal effect (visual assessment, scale 0-5) [1]	ALOMY herbicidal effect (visual assessment, percentage scale) [2] [%]	AMARE herbicidal effect (visual assessment, percentage scale) [2] [%]	ECHCG herbicidal effect (visual assessment, percentage scale) [2] [%]	STEME herbicidal effect (visual assessment, percentage scale) [2] [%]
Cc1cnc(S(=O)(=O)Cc2c(C(F)(F)F)nn(C)c2OCC(F)(F)F)s1 [Compound 1.075]	5	1	0	5	5				
Cn1nc(C(F)(F)F)c(C(Cl)S(=O)(=O)c2ncc(Cl)s2)c1Cl (racemic) [Compound No. 1.043]						0	80	95	0
Cn1nc(C(F)(F)F)c(CS(=O)(=O)c2ncc(Cl)s2)c1OCC(F)(F)C(F)F [Compound 1.120]	5	5	5	5	5				
Cn1nc(C(F)(F)F)c(CS(=O)(=O)c2nccs2)c1OCC(F)(F)F [Compound 1.049]						30	95	95	10
Cn1nc(C(F)(F)F)c(CSc2ncc(Cl)s2)c1OCC(F)F [Compound No. 1.115]	5	3	5	0	3				
Cn1nc(C(F)(F)F)c(C(F)(F)S(=O)(=O)c2ncc(Br)s2)c1OCC(F)(F)F [Compound No. 1.042]						60	100	95	90
Cn1nc(C(F)(F)F)c(C[S+]([O-])c2ncc(Cl)s2)c1OCCCF (racemic) [Compound 1.103]	5	4	5	5	4				
Cn1nc(C(F)(F)F)c(CS(=O)(=O)c2ncc(Br)s2)c1F [Compound No. 1.012]						70	90	95	0
Cn1nc(C(F)(F)F)c(CSc2ncc(Cl)s2)c1OC(CF)CF [Compound No. 1.112]	5	4	5	0	0				
Cn1nc(C(F)(F)F)c(CSc2ncc(Br)s2)c1F [Compound No. 1.010]						60	70	80	0
Cn1nc(C(F)(F)F)c(C[S+]([O-])c2nccs2)c1OCC(F)(F)F (racemic) [Compound 1.048]						80	95	95	80
Cn1nc(C(F)(F)F)c(C(F)S(=O)(=O)c2ncc(Br)s2)c1Cl (racemic) [Compound No. 1.032]						60	80	80	60
Cn1nc(C(F)(F)F)c(CS(=O)(=O)c2ncc(Cl)s2)c1OCC(F)F [Compound 1.117]	5	5	5	5	5				
Cn1nc(C(F)(F)F)c(C[S+]([O-])c2ncc(Br)s2)c1F (racemic) [Compound 1.011]						95	95	95	10
Cn1nc(OC(F)F)c(C[S+]([O-])c2ncc(Cl)s2)c1C(F)(F)F (racemic) [Compound 1.054]						95	100	95	30
C=C(F)COc1c(CS(=O)(=O)c2ncc(Cl)s2)c(C(F)(F)F)nn1C [Compound 1.125]	5	5	5	5	5				
Cn1nc(C(F)(F)F)c(C(F)S(=O)(=O)c2ncc(Cl)s2)c1Cl (racemic) [Compound No. 1.045]						70	100	100	0
Cn1nc(C(F)(F)F)c(CS(=O)(=O)c2ncc(Cl)s2)c1Cl [Compound No. 1.018]						60	100	95	0
Cn1nc(C(F)(F)F)c(C[S+]([O-])c2ncc(Cl)s2)c1F (racemic) [Compound 1.008]						95	100	95	80
Cn1nc(C(F)(F)F)c(C(Cl)S(=O)(=O)c2ncc(Cl)s2)c1OCC(F)(F)F (racemic) [Compound No. 1.034]						70	100	95	40
Cn1nc(C(F)(F)F)c(CS(=O)(=O)c2ncc(Cl)s2)c1F [Compound No. 1.009]						0	95	95	0
Cn1nc(C(F)(F)F)c(C(F)(Cl)S(=O)(=O)c2ncc(Cl)s2)c1OCC(F)(F)F (racemic) [Compound No. 1.035]						0	95	95	20
Cn1nc(C(F)(F)F)c(C(Cl)S(=O)(=O)c2ncc(Br)s2)c1OCC(F)(F)F (racemic) [Compound No. 1.039]						60	95	95	0
Cn1nc(C(F)(F)F)c(CSc2ncc(Cl)s2)c1F [Compound No. 1.007]						95	80	95	40
Cn1nc(C(F)(F)F)c(CS(=O)(=O)c2ncc(Cl)s2)c1OCC(F)(F)F [Compound No. 1.015]						90	95	95	80
Cn1nc(C(F)(F)F)c(CS(=O)(=O)c2nc(Br)cs2)c1OCC(F)(F)F [Compound 1.029]						0	95	0	95
Cn1nc(C(F)(F)F)c(C(F)(Cl)S(=O)(=O)c2ncc(Cl)s2)c1Cl (racemic) [Compound No. 1.044]						40	95	95	90

From patent US20090048112A1, “Novel Herbicides” (SYNGENTA LIMITED, priority 2005, published 2009)
